Results on 21 compounds are retold here after patent publication US6974870B2, “Substituted 3-amino-thieno [2,3-b]pyridine-2-carboxylic acid amide compounds and processes for preparing and their uses” (Boehringer Ingelheim Phamaceuticals, Inc., priority 2002, dated 2005).

Where only a bound is given, the exact number is not on record here.

One experiment deals with T1, human IKKα (Homo sapiens, UniProt O15111).
T1 construct: FLAG (N)
T1 sequence (O15111 1-745): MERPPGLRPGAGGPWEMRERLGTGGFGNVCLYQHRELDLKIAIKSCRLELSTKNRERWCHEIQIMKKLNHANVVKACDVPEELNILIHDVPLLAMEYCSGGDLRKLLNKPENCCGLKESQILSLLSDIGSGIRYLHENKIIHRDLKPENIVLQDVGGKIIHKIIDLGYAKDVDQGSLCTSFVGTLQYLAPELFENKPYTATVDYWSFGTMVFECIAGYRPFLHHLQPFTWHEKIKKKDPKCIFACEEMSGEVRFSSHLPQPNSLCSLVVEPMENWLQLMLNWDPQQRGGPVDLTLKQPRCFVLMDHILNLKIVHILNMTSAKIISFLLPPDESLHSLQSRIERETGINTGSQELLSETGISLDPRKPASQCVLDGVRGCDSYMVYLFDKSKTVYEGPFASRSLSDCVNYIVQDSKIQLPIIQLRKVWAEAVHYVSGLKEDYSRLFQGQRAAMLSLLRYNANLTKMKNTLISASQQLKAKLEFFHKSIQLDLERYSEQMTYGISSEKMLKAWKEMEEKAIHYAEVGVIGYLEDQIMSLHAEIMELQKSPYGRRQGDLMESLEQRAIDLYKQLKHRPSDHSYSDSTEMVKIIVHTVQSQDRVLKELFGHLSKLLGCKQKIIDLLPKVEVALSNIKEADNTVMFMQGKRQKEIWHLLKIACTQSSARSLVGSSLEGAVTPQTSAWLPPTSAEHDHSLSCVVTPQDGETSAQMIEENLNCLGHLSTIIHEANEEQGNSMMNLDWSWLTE
In words: IKKα kinase inhibition assay (phosphorylation of IκBα substrate, 33P-ATP). Type of experiment: biochemical. The following applies: flag-tagged human IKKα 3.6 μg/ml, GST-IκBα (1-54) 245 μg/ml, 250 nM ATP, 1 hour at 25° C. The method, then: (§1) The inhibition of IKKα and IKKβ by the compounds of the present invention was determined with the following assay that measures the phosphorylation of the IκBα substrate by the respective kinases. The enzymes used in the assay were N-terminally flag-tagged versions of the human IKKβ or IKKα and the substrate was a GST fusion protein with IκBα (amino acids 1-54).
(§2) The reaction mixtures (60 μl) contained 20 mM HEPES pH 7.5, 10 mM MgCl2, 2 mM MnCl2, 100 mM NaCl, 100 μM Na3VO4, 20 mM β-glycerophosphate, 1 mM DTT, 2% DMSO, 250 nM ATP, 0.4 nM [^33P]ATP (specific activity, 3000 Ci/mmol), IκBα substrate, IKK enzyme and test compound. The reaction mixtures contained either 3.6 μg/ml IKKα and 245 μg/ml IκBα or 0.9 μg/ml IKKβ and 53 μg/ml IκBα.
(§3) Reactions were initiated by adding a solution of IκBα substrate and ATP to polypropylene plates containing IKK enzyme that was pre-incubated for 5 minutes with test compound. Then the reaction mixtures were incubated for 1 hour at 25° C., placed on ice and quenched by the addition of 150 μl 10% trichloroacetic acid and 5% disodium pyrophosphate. After mixing, the entire contents of the quenched reaction mixtures were transferred to a pre-wetted Packard UniFilter filtration plate, aspirated and washed 6 times with 250 μl of ddH2O using the Packard Filtermate Harvester. Filtration plates were then air dried, supplemented with 40 μl of Microscint 20 scintillation fluid and the ^33P-labeled reaction products were quantified using the Packard TopCount scintillation counter.
(§4) Compounds were tested in three-fold serial dilutions and inhibitor concentrations to achieve 50% inhibition of enzyme activity (i.e., IC50) were derived from dose-reponse curves using SAS software (SAS Institute, Cary N.C.). A non-linear regression analysis based on the Hill equation was applied to the percent inhibition versus concentration data. In all cases, compound concentrations were verified by HPLC.
One may read the IC50 as the midpoint of a concentration-inhibition curve. A high value points to weaker potency. `CCCc1cc(N2CCC(NCC(O)c3ccc(C(=O)NCc4cccnc4)cc3)CC2)nc2sc(C(N)=O)c(N)c12` (stereo not drawn) [3-Amino-6-[4-(2-hydroxy-2-{4-[(pyridin-3-ylmethyl)-carbamoyl]-phenyl}-ethylamino)-piperidin-1-yl]-4-propyl-thieno[2,3-b] pyridine-2-carboxylic acid amide] gave a 50% inhibitory concentration (IC50) of at most 10 µM.
Still for that read-out and setting: with `Cc1cc(/C=C/c2ccc(Cl)cc2)c2c(N)c(C(N)=O)sc2n1` [3-Amino-4-[(E)-2-(4-chloro-phenyl)-vinyl]-6-methyl-thieno[2,3-b]pyridine-2-carboxylic acid amide] the figure was at most 10 µM; with `Cc1cc(-c2ccco2)c2c(N)c(C(N)=O)sc2n1` [3-Amino-4-furan-2-yl-6-methyl-thieno[2,3-b]pyridine-2-carboxylic acid amide], at most 10 µM.
`NC(=O)c1sc2nc(N3CCC(NCC(O)c4ccc(F)c(F)c4)CC3)cc(C(F)(F)F)c2c1N` (stereo not drawn) [3-Amino-6-{4-[2-(3,4-difluoro-phenyl)-2-hydroxy-ethylamino]-piperidin-1-yl}-4-trifluoromethyl-thieno[2,3-b]pyridine-2-carboxylic acid amide] registered a concentration for half-maximal inhibition (IC50) of at most 10 µM.
The same measure, in the same setting: under `NC(=O)c1sc2nc(N3CCC(NCC(O)c4ccc(C(=O)NCc5ccccc5)cc4)CC3)cc(C(F)(F)F)c2c1N` (stereo not drawn) [3-Amino-6-{4-[2-(4-benzylcarbamoyl-phenyl)-2-hydroxy-ethylamino]-piperidin-1-yl}-4-trifluoromethyl-thieno[2,3-b]pyridine-2-carboxylic acid amide] stands at most 10 µM.
Take `CCCc1cc(N2CCC(NCC(O)c3ccc(C(=O)NCc4cccc(C(N)=O)c4)cc3)CC2)nc2sc(C(N)=O)c(N)c12` (stereo not drawn) [3-Amino-6-(4-{2-[4-(3-carbamoyl-benzylcarbamoyl)-phenyl]-2-hydroxy-ethylamino}-piperidin-1-yl)-4-propyl-thieno[2,3-b] pyridine-2-carboxylic acid amide]: the IC50 is at most 10 µM.
Take `CCCc1cc(N2CCC(N)CC2)nc2sc(C(N)=O)c(N)c12` [3-Amino-6-(4-amino-piperidin-1-yl)-4-propyl-thieno[2,3-b] pyridine-2-carboxylic acid amide]: the concentration for half-maximal inhibition (IC50) was at most 10 µM.
For the compound `CCCc1cc(N2CCNCC2)nc2sc(C(N)=O)c(N)c12` [3-amino-6-piperazin-1-yl-4-propyl-thieno[2,3-b]pyridine-2-carboxylic acid amide], the IC50 is at most 10 µM.
The same measure, in the same setting: with `CCCc1cc(N2CCC(NC)CC2)nc2sc(C(N)=O)c(N)c12` [3-Amino-6-(4-methylamino-piperidin-1-yl)-4-propyl-thieno[2,3-b] pyridine-2-carboxylic acid amide] the figure was at most 10 µM.

A further experiment has as its target T2, human IKKβ (Homo sapiens, UniProt O14920).
T2 construct: FLAG (N)
T2 sequence (O14920 1-756): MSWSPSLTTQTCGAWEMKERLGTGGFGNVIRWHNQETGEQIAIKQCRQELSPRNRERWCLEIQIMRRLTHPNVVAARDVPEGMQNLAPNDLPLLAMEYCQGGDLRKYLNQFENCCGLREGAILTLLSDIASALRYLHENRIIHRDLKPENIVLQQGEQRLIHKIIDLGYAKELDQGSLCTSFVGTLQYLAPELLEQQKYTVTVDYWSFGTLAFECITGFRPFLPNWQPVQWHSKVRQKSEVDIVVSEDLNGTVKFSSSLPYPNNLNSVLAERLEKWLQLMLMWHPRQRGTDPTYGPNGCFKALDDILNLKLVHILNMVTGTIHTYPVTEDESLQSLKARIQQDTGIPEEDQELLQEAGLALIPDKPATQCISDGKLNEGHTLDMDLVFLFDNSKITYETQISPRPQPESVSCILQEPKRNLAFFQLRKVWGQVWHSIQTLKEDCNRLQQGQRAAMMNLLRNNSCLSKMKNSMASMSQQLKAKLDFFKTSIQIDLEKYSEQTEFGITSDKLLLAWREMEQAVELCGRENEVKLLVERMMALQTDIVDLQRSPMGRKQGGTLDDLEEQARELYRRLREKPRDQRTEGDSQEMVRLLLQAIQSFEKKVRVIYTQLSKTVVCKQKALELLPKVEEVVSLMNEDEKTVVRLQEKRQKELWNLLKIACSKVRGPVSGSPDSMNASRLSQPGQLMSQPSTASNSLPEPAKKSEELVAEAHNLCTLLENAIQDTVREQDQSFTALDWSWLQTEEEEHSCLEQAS
In words: IKKβ kinase inhibition assay (phosphorylation of IκBα substrate, 33P-ATP). Type of experiment: biochemical. The following applies: flag-tagged human IKKβ 0.9 μg/ml, GST-IκBα (1-54) 53 μg/ml, 250 nM ATP, 1 hour at 25° C. The protocol: as §1, §2, §3, §4
Compound `NC(=O)c1sc2nc(N3CCC(NCC(O)c4ccc(-c5cccnc5)cc4)CC3)cc(C(F)(F)F)c2c1N` (stereo not drawn) [3-Amino-6-{4-[2-hydroxy-2-(4-pyridin-3-yl-phenyl)-ethylamino]-piperidin-1-yl}-4-trifluoromethyl-thieno[2,3-b]pyridine-2-carboxylic acid amide] registered an IC50 below 1 µM.
The same measure, in the same setting: under `CC(C)(C)c1cc(N2CCC(N)CC2)nc2sc(C(N)=O)c(N)c12` [3-Amino-6-(4-amino-piperidin-1-yl)-4-tert-butyl-thieno[2,3-b] pyridine-2-carboxylic acid amide] stands below 1 µM; under `CCCc1cc(N2CCC(NCC(O)Cc3ccc(C(N)=O)cc3)CC2)nc2sc(C(N)=O)c(N)c12` (stereo not drawn) [3-Amino-6-{4-[3-(4-carbamoyl-phenyl)-2-hydroxy-propylamino]-piperidin-1-yl}-4-propyl-thieno[2,3-b] pyridine-2-carboxylic acid amide], below 1 µM.
With `CCCc1cc(N2CCC(NCC(O)c3cccc(-c4ccccn4)c3)CC2)nc2sc(C(N)=O)c(N)c12` (stereo not drawn) [3-Amino-6-{4-[2-hydroxy-2-(3-pyridin-2-yl-phenyl)-ethylamino]-piperidin-1-yl}-4-propyl-thieno[2,3-b] pyridine-2-carboxylic acid amide], the concentration for half-maximal inhibition (IC50) was below 1 µM.
With `CCCc1cc(N2CCC(NCC(=O)Nc3ccccc3C(N)=O)CC2)nc2sc(C(N)=O)c(N)c12` [3-Amino-6-(4-{[(2-carbamoyl-phenylcarbamoyl)-methyl]-amino}-piperidin-1-yl)-4-propyl-thieno[2,3-b] pyridine-2-carboxylic acid amide], the IC50 was below 1 µM.
On the same count and under the same terms, under `CCCc1cc(N2CCC(NCC(O)c3ccc(-c4ccncc4)cc3)CC2)nc2sc(C(N)=O)c(N)c12` (stereo not drawn) [3-Amino-6-{4-[2-hydroxy-2-(4-pyridin-4-yl-phenyl)-ethylamino]-piperidin-1-yl}-4-propyl-thieno[2,3-b] pyridine-2-carboxylic acid amide] stands below 1 µM; under `CCCc1cc(N2CCC(NCC(O)COc3ccc4ccccc4c3)CC2)nc2sc(C(N)=O)c(N)c12` (stereo not drawn) [3-Amino-6-{4-[2-hydroxy-3-(naphthalen-2-yloxy)-propylamino]-piperidin-1-yl}-4-propyl-thieno[2,3-b] pyridine-2-carboxylic acid amide], below 1 µM.
`CCCc1cc(N2CCC(NCC(O)COc3cccc(OC)c3)CC2)nc2sc(C(N)=O)c(N)c12` (stereo not drawn) [3-Amino-6-{4-[2-hydroxy-3-(3-methoxy-phenoxy)-propylamino]-piperidin-1-yl}-4-propyl-thieno[2,3-b] pyridine-2-carboxylic acid amide] came in with an IC50 below 1 µM.
Still for that read-out and setting: under `CCCc1cc(N2CCC(NCC(=O)Nc3cnc4ccccc4c3)CC2)nc2sc(C(N)=O)c(N)c12` stands below 1 µM; under `CCCc1cc(N2CCC(NCC(=O)NCC(N)=O)CC2)nc2sc(C(N)=O)c(N)c12` [3-Amino-6-(4-{[(carbamoylmethyl-carbamoyl)-methyl]-amino}-piperidin-1-yl)-4-propyl-thieno[2,3-b] pyridine-2-carboxylic acid amide], below 1 µM.
`CCCc1cc(N2CCC(NCC(O)c3ccc(-c4ccccn4)cc3)CC2)nc2sc(C(N)=O)c(N)c12` (stereo not drawn) [3-Amino-6-{4-[2-hydroxy-2-(4-pyridin-2-yl-phenyl)-ethylamino]-piperidin-1-yl}-4-propyl-thieno[2,3-b] pyridine-2-carboxylic acid amide] displayed an IC50 below 1 µM.
On the same count and under the same terms, under `CCCc1cc(N2CCC(NCC(=O)NCCO)CC2)nc2sc(C(N)=O)c(N)c12` [3-Amino-6-(4-{[(2-hydroxy-ethylcarbamoyl)-methyl]-amino}-piperidin-1-yl)-4-propyl-thieno[2,3-b] pyridine-2-carboxylic acid amide] stands below 1 µM.
